Where “and” joins values, the source holds several entries; their conditions need not be identical. Equal values may be shown once.
How the values were obtained:
[1] = Stability of crystal forms under ambient conditions; type: physicochemical
[2] = Solubility of the agent in hydrophilic and hydrophobic media; type: physicochemical; conditions: hydrophilic and hydrophobic media (aqueous and oily media)
[3] = tested on: VEGF-induced extravasation; experiment: Miles assay in domestic pigs; type: in vivo
Experimental: (§1) Vascular endothelial growth factors (VEGFs) have angiogenic and vascular permeability-promoting activities in vitro and in vivo. […] Young domestic pigs were used because pig skin is very similar to human skin in architecture and permeability for xenobiotics. Inhibition of dermal angiogenesis related to the agent of the invention was tested with an “matrigel” assay which was developed for studies in pigs; inhibition of vascular permeability in the skin with a modified Miles assay. With matrigel implants into which endothelial cells immigrate to form new vessels anti-angiogenic effects of applied test articles can be assessed in vivo; with the Miles assay, extravasation of Evans blue-labeled albumin is measured after VEGF-induced vascular leakage.
Method: Test areas of 5×20 cm on both paramedian ventral abdominal sides of 16-18 kg weighing domestic pigs were topically treated with 1 ml of 0.8% 6-(6-hydroxymethyl-pyrimidin-4-yloxy)-naphthalene-1-carboxylic acid (3-trifluoromethyl-phenyl)-amide trice (30, 7 and 3 hrs prior to elicitation of vascular leakage with VEGF). […] Evans blue was extracted from the biopsies with 0.5 ml formamide and the concentration of Evans blue in the supernatants was measured photometrically. […]

dermal angiogenesis = experiment: Matrigel assay in domestic pigs; type: in vivo
Experimental: as §1
Method: Test areas on both paramedian ventral abdominal sides of 16-18 kg weighing domestic pigs were topically treated with 0.5% 6-(6-hydroxymethyl-pyrimidin-4-yloxy)-naphthalene-1-carboxylic acid (3-trifluoromethyl-phenyl)-amide or the vehicle (ethanol/propylene glycol 3/7) alone. Treatment was performed twice daily on days 1-4. On day 2, 100 μl matrigel, loaded with the angiogenic factors […] VEGF-165 and 40 U/ml heparin were injected intradermally at 10 different sites of the treated areas. On day 5, the animals were sacrificed and 8 mm punches from the injection sites collected, the subcutaneous fatty tissue removed, the hemorrhagic plugs carefully dissected and weighed. Thereafter, the samples were digested with dispase and single cell suspensions prepared. The isolated cells were stained with the endothelial cell marker CD31 or isotype controls and analyzed with FACS after gating for endothelial cells.

[4] = 0.5% in ethanol:propylene glycol 3/7, topical twice daily days 1-4, plugs excised day 5

O.O=C(Nc1cccc(C(F)(F)F)c1)c1cccc2cc(Oc3cc(CO)ncn3)ccc12.O=C(Nc1cccc(C(F)(F)F)c1)c1cccc2cc(Oc3cc(CO)ncn3)ccc12 [Crystal form B, 6-(6-Hydroxymethyl-pyrimidin-4-yloxy)-naphthalene-1-carboxylic acid (3-trifluoromethyl-phenyl)-amide hemihydrate, modification B]
stability of the modification (in words) [1]: particularly stable modification

O=C(Nc1cccc(C(F)(F)F)c1)c1cccc2cc(Oc3cc(CO)ncn3)ccc12 [agent of the invention, 6-(6-hydroxymethyl-pyrimidin-4-yloxy)-naphthalene-1-carboxylic acid (3-trifluoromethyl-phenyl)-amide]
solubility properties (in words) [2]: very poor solubility properties
inhibition of VEGF-induced extravasation ([3]; 0.8% agent topically 30, 7 and 3 hrs before VEGF 165, vs placebo): 24%
Evans blue concentration (μg/ml tissue extract) ([3]; 0.8% agent, 1 ml topically 30, 7 and 3 hrs before VEGF 165 injection, biopsies 30 min after challenge): 1.26 (0.13)++ μg/ml tissue extract
difference in CD31+ cell number vs vehicle-treated sites (dermal angiogenesis; 0.5% epicutaneously, gated on endothelial cells): 66%
plug weight less than vehicle-treated sites (dermal angiogenesis; 0.5% epicutaneously, vs vehicle): 19%
Cell counts (CD31+)/μl, gated on endothelial cells (dermal angiogenesis; [4]): 353 µL⁻¹
Weight (mg) of excised plugs (dermal angiogenesis; [4]): 88 mg and 87.8 mg

— US20110112121A1, “Pharmaceutical Compositions and Solid Forms” (priority 2009, published 2011)
